Key:
[1] = Cytotoxicity against human BEAS-2B cells assessed as reduction in cell viability incubated for 48 hrs by MTS assay; assay type: toxicity, cell-based
HL-60 [2] = test: Cytotoxicity against human HL-60 cells assessed as reduction in cell viability incubated for 48 hrs by MTS assay; assay type: functional, cell-based; details: HL-60, 48 h
A549 [3] = test: Cytotoxicity against human A549 cells assessed as reduction in cell viability incubated for 48 hrs by MTS assay; assay type: functional, cell-based; details: A549, 48 h
SMMC-7721 [4] = test: Cytotoxicity against human SMMC-7721 cells assessed as reduction in cell viability incubated for 48 hrs by MTS assay; assay type: functional, cell-based; details: SMMC-7721, 48 h
SW480 [5] = test: Growth inhibition in human SW480 cells assessed as reduction in cell viability at 40 uM incubated for 48 hrs by MTS assay relative to control; assay type: functional; details: read-out: GI
HL-60 [6] = test: Growth inhibition in human HL-60 cells assessed as reduction in cell viability at 40 uM incubated for 48 hrs by MTS assay relative to control; assay type: functional; details: read-out: GI
SW480 [7] = test: Cytotoxicity against human SW480 cells assessed as reduction in cell viability incubated for 48 hrs by MTS assay; assay type: functional, cell-based; details: SW480, 48 h
A549 [8] = test: Growth inhibition in human A549 cells assessed as reduction in cell viability at 40 uM incubated for 48 hrs by MTS assay relative to control; assay type: functional; details: read-out: GI
MDA-MB-231 [9] = test: Cytotoxicity against human MDA-MB-231 cells assessed as reduction in cell viability incubated for 48 hrs by MTS assay; assay type: functional, cell-based; details: MDA-MB-231, 48 h
MDA-MB-231 [10] = test: Growth inhibition in human MDA-MB-231 cells assessed as reduction in cell viability at 40 uM incubated for 48 hrs by MTS assay relative to control; assay type: functional; details: read-out: GI
SMMC-7721 [11] = test: Growth inhibition in human SMMC-7721 cells assessed as reduction in cell viability at 40 uM incubated for 48 hrs by MTS assay relative to control; assay type: functional; details: read-out: GI
SMMC-7721 [12] = test: Induction of apoptosis in human SMMC-7721 cells assessed as necrotic cells at 10 uM incubated for 24 hrs by Annexin V-FITC/PI staining based flow cytometry analysis (Rvb= 0.572%); assay type: functional
SMMC-7721 [13] = test: Induction of apoptosis in human SMMC-7721 cells assessed as viable cells at 5 uM incubated for 24 hrs by Annexin V-PE/7-AAD staining based flow cytometry analysis (Rvb= 98.6%); assay type: functional; details: read-out: Activity
SMMC-7721 [14] = test: Induction of apoptosis in human SMMC-7721 cells assessed as late apoptotic cells at 20 uM incubated for 24 hrs by Annexin V-PE/7-AAD staining based flow cytometry analysis (Rvb= 0.627%); assay type: functional
SMMC-7721 [15] = test: Induction of apoptosis in human SMMC-7721 cells assessed as viable cells at 10 uM incubated for 24 hrs by Annexin V-PE/7-AAD staining based flow cytometry analysis (Rvb= 98.6%); assay type: functional; details: read-out: Activity
SMMC-7721 [16] = test: Induction of apoptosis in human SMMC-7721 cells assessed as viable cells at 20 uM incubated for 24 hrs by Annexin V-PE/7-AAD staining based flow cytometry analysis (Rvb= 98.6%); assay type: functional; details: read-out: Activity
SMMC-7721 [17] = test: Induction of apoptosis in human SMMC-7721 cells assessed as late apoptotic cells at 5 uM incubated for 24 hrs by Annexin V-PE/7-AAD staining based flow cytometry analysis (Rvb= 0.627%); assay type: functional
SMMC-7721 [18] = test: Induction of apoptosis in human SMMC-7721 cells assessed as late apoptotic cells at 10 uM incubated for 24 hrs by Annexin V-PE/7-AAD staining based flow cytometry analysis (Rvb= 0.627%); assay type: functional
SMMC-7721 [19] = test: Induction of apoptosis in human SMMC-7721 cells assessed as necrotic cells at 20 uM incubated for 24 hrs by Annexin V-FITC/PI staining based flow cytometry analysis (Rvb= 0.572%); assay type: functional
SMMC-7721 [20] = test: Induction of apoptosis in human SMMC-7721 cells assessed as early apoptotic cells at 5 uM incubated for 24 hrs by Annexin V-PE/7-AAD staining based flow cytometry analysis (Rvb= 0.231%); assay type: functional
SMMC-7721 [21] = test: Induction of apoptosis in human SMMC-7721 cells assessed as necrotic cells at 5 uM incubated for 24 hrs by Annexin V-FITC/PI staining based flow cytometry analysis (Rvb= 0.572%); assay type: functional
SMMC-7721 [22] = test: Induction of apoptosis in human SMMC-7721 cells assessed as early apoptotic cells at 20 uM incubated for 24 hrs by Annexin V-PE/7-AAD staining based flow cytometry analysis (Rvb= 0.231%); assay type: functional
SMMC-7721 [23] = test: Induction of apoptosis in human SMMC-7721 cells assessed as early apoptotic cells at 10 uM incubated for 24 hrs by Annexin V-PE/7-AAD staining based flow cytometry analysis (Rvb= 0.231%); assay type: functional

Compound | IC50 at 48 h [1] | IC50 (HL-60 [2]) | IC50 (A549 [3]) | IC50 (SMMC-7721 [4]) | inhibition of growth at 40 µM (SW480 [5]) | inhibition of growth at 40 µM (HL-60 [6]) | IC50 (SW480 [7]) | inhibition of growth at 40 µM (A549 [8]) | IC50 (MDA-MB-231 [9]) | inhibition of growth at 40 µM (MDA-MB-231 [10]) | inhibition of growth at 40 µM (SMMC-7721 [11]) | other results
CC(C)=CCc1c(O)cc(O)c2c1O[C@]13C(=C[C@H]4C[C@H]1C(C)(C)O[C@@]3(CC=C(C)C)C4=O)C2=O | 700 nM | 1100 nM | 800 nM | 500 nM | > 50% | > 50% | 1000 nM | > 50% | 1300 nM | > 50% | > 50% | –
CC(C)=CC[C@@]12OC(C)(C)[C@@H]3C[C@H](C=C4C(=O)c5c(O)cc(O)c(CCC(C)(C)O)c5O[C@]431)C2=O | 7700 nM | 4900 nM | 2900 nM | 2100 nM | > 50% | > 50% | 3800 nM | > 50% | 6200 nM | > 50% | > 50% | –
CC1(C)C=Cc2c(cc(O)c3c(=O)c4ccc(O)c(O)c4oc23)O1 | 21100 nM | – | 3900 nM | 2200 nM | > 50% | > 50% | 4000 nM | > 50% | 8900 nM | > 50% | > 50% | –
CC(C)=CC[C@@]12OC(C)(C)[C@@H]3C[C@H](C=C4C(=O)c5c(O)cc(O)cc5O[C@]431)C2=O | 3200 nM | 6300 nM | 2600 nM | 1400 nM | > 50% | > 50% | 3700 nM | > 50% | 5700 nM | > 50% | > 50% | Activity (SMMC-7721 [12]): 8.22%; viability at 5 µM (SMMC-7721 [13]): 85.4%; Activity (SMMC-7721 [14]): 68.7%; viability at 10 µM (SMMC-7721 [15]): 50%; viability at 20 µM (SMMC-7721 [16]): 6.98%; Activity (SMMC-7721 [17]): 9.08%; Activity (SMMC-7721 [18]): 29.1%; Activity (SMMC-7721 [19]): 3.79%; Activity (SMMC-7721 [20]): 3.74%; Activity (SMMC-7721 [21]): 1.8%; Activity (SMMC-7721 [22]): 20.5%; Activity (SMMC-7721 [23]): 12.7%
CC(C)=CC[C@@]12OC(C)(C)[C@@H]3C[C@H](C=C4C(=O)c5c(O)cc6c(c5O[C@]431)CCC(C)(C)O6)C2=O | 1100 nM | 1700 nM | 2900 nM | 1000 nM | > 50% | > 50% | 1000 nM | > 50% | 2300 nM | > 50% | > 50% | –
CC(C)(O)CCc1c(O)cc(O)c2c(=O)c3ccc(O)c(O)c3oc12 | 20400 nM | 3900 nM | 7200 nM | 2200 nM | > 50% | > 50% | 6100 nM | > 50% | 27300 nM | > 50% | > 50% | –
COc1cccc2c1C(=O)c1c(O)c3c(c(O)c1C2=O)C[C@@](O)(C(=O)CO)C[C@@H]3O[C@H]1C[C@H](N)[C@H](O)[C@H](C)O1 [DOXORUBICIN] | – | – | – | – | – | – | – | – | – | – | – | viability at 5 µM (SMMC-7721 [13]): 1.34%; Activity (SMMC-7721 [17]): 96%; Activity (SMMC-7721 [20]): 0.796%; Activity (SMMC-7721 [21]): 1.85%

From ChEMBL document CHEMBL5370577, “Structurally Diverse Cytotoxic Polyphenols from Garcinia gracilis” (J Nat Prod, 2023)
